Data set [1] can be described thus: in vitro. Conditions: human.
Protocol: (§4) Cells were purchased from the American Type Culture Collection (ATCC, Manassas, VA, USA). Human lung adenocarcinoma A549 cells were maintained in Dulbecco's Modified Eagle Medium (DMEM), while mouse fibroblast NIH/3T3 and human promyelocytic leukemia HL-60 cells were maintained in Roswell Park Memorial Institute 1640 medium (RPMI-1640) containing 10% FCS. Media were supplemented with 2 mM GlutaMAX, 100 U/mL penicillin, and 100 µg/mL streptomycin (Life Technologies, Carlsbad, California, USA). Cell cultures were maintained at 37 °C in a humidified incubator in an atmosphere of 5% CO2 (Sanyo, Japan).
(§5) Cytotoxicity of the synthesized molecules was determined on A549, NIH/3T3 and HL-60 cells using the fluorescent Resazurin assay as described previously [46].
(§6) Briefly, cells (A549 and NIH/3T3: 6000, HL-60: 120.000 cells/well) were seeded into 96-well plates (Corning Life Sciences) in media and incubated overnight. Test compounds were dissolved in three-fold amounts of dimethyl sulfoxide (DMSO). Cells were treated with an increasing concentration of test compounds (1–30 µM). […] Cell viability was determined after 72 h incubation. Resazurin reagent (Sigma-Aldrich) was added at a final concentration of 25 µg/mL. After a 2 h incubation at 37 °C in 5% CO2, fluorescence (530 nm excitation/580 nm emission) was recorded on a multimode microplate reader (Cytofluor4000, PerSeptive Biosytems). Viability was calculated with relation to untreated control cells and blank wells containing media without cells. […] A Student’s t test was performed for individual test compound concentrations with relation to untreated control cell viability values.
Data set [2] can be described thus: in vitro. Conditions: human, In Vitro Cytotoxicity (IC50, µM) HL-60, 72 h incubation, 1–30 µM tested, mean ± SD.
Protocol: as §4, §5, §6
Data set [3] in a line: in vitro. Conditions: mouse.
Protocol: as §4, §5, §6
Another data set concerns B. subtilis-GFP. The experiment in a line: Antibacterial activity on GFP producing Gram-positive bacteria (fluorimetry). Format: cell-based, Bacillus subtilis. Conditions: GFP fluorescence, 1–30 µM tested, mean ± SD. On the procedure:
(§1) Finally, the biological activity of the synthesized 1,2,3-triazol-5-yl-phosphonates (8, 11–26) was investigated. On the one hand, the antibacterial activity of the compounds was tested on GFP producing Gram-positive (Bacillus subtilis) and Gram-negative (Escherichia coli) bacterial cells. The GFP producing bacteria are an effective tool for screening for antibacterial activity since GFP signal measured via fluorimetry is proportional to the number of bacterial cells. Active compounds would kill bacterial cells, which results in the decrease in GFP fluorescence signal, therefore it is suitable for evaluating the antimicrobial effect of different agents. On the other hand, in vitro cytotoxicity assessments were performed on three different cell lines, such as human lung adenocarcinoma (A549), mouse fibroblast (NIH/3T3) as healthy cell line and human promyelocytic leukemia (HL-60). Table 3 contains the determined IC50 values in antimicrobial and cytotoxicity assays. According to the results, only modest antibacterial activity was detected against the more sensitive Bacillus subtilis strain.
(§2) All reagents were purchased from Sigma-Aldrich (Hungary, Budapest). E. coli-GFP and B. subtilis-GFP bacteria were grown in Lysogeny Broth (Luria-Bertani broth, LB, 10 g tryptone, 5 g yeast extract, 10 g/L NaCl, pH 7.0) medium overnight (ON) at 37 °C in an incubator with continuous shaking. The ON bacterial culture was diluted (E. coli-GFP: 1:10000, B. subtilis-GFP: 1:1000) in LB medium containing 10 µg/mL ampicillin. Two hundred microliters of diluted E. coli suspension per well were transferred to 96-well plates and different agents were added in the appropriate concentration, then incubated in a shaker (600 rpm) for 3 h at 37 °C. Test compounds were dissolved in 3-fold amounts of dimethyl sulfoxide (DMSO). […] For induction of the GFP expression IPTG (0.1 mM final concentration) was added to each well and incubated for 3 h at 37 °C.
(§3) The following incubation samples were centrifuged at 2750 rpm at room temperature (RT) for 5 min and washed twice with 200 µL PBS, with a centrifugation step between the two washes. After a third centrifugation step, the bacterial cells were suspended in 100 µL PBS. The number of bacteria was estimated according to the fluorimetric measurements. The fluorescence of the bacterial cells was measured by the Victor™ 1420 Multilabel Counter (Perkin Elmer, Waltham, MA, USA) at 485/535 nm for 1 sec per well controlled by Wallac 1420 Manager software. Each treatment was repeated in at least 2 wells per plate during the experiments. Percentage fluorescence intensity based on the quantity of E. coli-GFP cells was calculated using untreated control values as 100%. Error was represented by standard deviation (SD).

The subject of another data set is E. coli-GFP. Nature of the data set: Antibacterial activity on GFP producing Gram-negative bacteria (fluorimetry). Format: cell-based, Escherichia coli. Conditions: GFP fluorescence, 1–30 µM tested, mean ± SD. Here is the method: as §1, §2, §3
Data set [4] is described as follows: In vitro cytotoxicity, fluorescent Resazurin assay. Conditions: human, HL-60 cells (human promyelocytic leukemia), In Vitro Cytotoxicity (IC50, µM) HL-60, 72 h incubation, 1–30 µM tested, mean ± SD. (In general: The colour change of resazurin is a common sign of viable cells or microbes.)
Protocol: as §4, §5, §6
For data set [5], the system named is NIH/3T3 cells (mouse fibroblast).
Protocol: as §4, §5, §6
The subject of data set [6] is HL-60 cells (human promyelocytic leukemia). The experiment in a line: In vitro cytotoxicity, fluorescent Resazurin assay. Conditions: read-out: In Vitro Cytotoxicity (IC50, µM) HL-60; 72 h incubation, 1–30 µM tested, mean ± SD.
Protocol: as §4, §5, §6
Data set [7] relates to A549 cells (human lung adenocarcinoma).
Protocol: as §4, §5, §6
Where [8] appears, read: A549 cells (human lung adenocarcinoma).
Where [9] appears, read: NIH/3T3 cells (mouse fibroblast).

Consider `CCCCCCCCn1nnc(-c2ccccc2)c1P(=O)(OCC)OCC` [Compound 24, Diethyl (1-octyl-4-phenyl-1,2,3-triazol-5-yl)phosphonate], for which the half-maximal inhibitory concentration (IC50) at 72 h in “in vitro [1]”, in the data set “in vitro [2]” and in “in vitro [3]” was greater than 30 µM in each case. Besides, the IC50 in the data set on B. subtilis-GFP (Bacillus subtilis) and in the data set with E. coli-GFP (Escherichia coli) was greater than 30 µM throughout.

Regarding `CCCCOP(=O)(OCCCC)c1c(-c2ccccc2)nnn1Cc1ccccc1` [Compound 8, Dibutyl (1-benzyl-4-phenyl-1,2,3-triazol-5-yl)phosphonate], the IC50 at 72 h is greater than 30 µM in “in vitro [1]” (setting [8]), 27.5 ± 1.4 µM in “in vitro [3]” (setting [9]) and greater than 30 µM in data set [4]. Further, the IC50 in the data set on B. subtilis-GFP (Bacillus subtilis) and in the data set with E. coli-GFP (Escherichia coli) was greater than 30 µM throughout.

Take `CCCCCOP(=O)(OCCCCC)c1c(-c2ccccc2)nnn1Cc1ccccc1` [Compound 15, Dipentyl (1-benzyl-4-phenyl-1,2,3-triazol-5-yl)phosphonate]: the IC50 at 72 h in “in vitro [1]” (setting [8]) is greater than 30 µM; in “in vitro [3]” (setting [9]) it was 26.2 ± 1.1 µM; in data set [4], 15.4 ± 1.2 µM. Besides, the IC50 is 23.9 ± 1 µM with B. subtilis-GFP (Bacillus subtilis) and greater than 30 µM in the data set on E. coli-GFP (Escherichia coli).

With `COc1cccc2c1C(=O)c1c(O)c3c(c(O)c1C2=O)C[C@@](O)(C(=O)CO)C[C@@H]3O[C@H]1C[C@H](N)[C@H](O)[C@H](C)O1` [Doxorubicin, reference compound], the 50% inhibitory concentration (IC50) at 72 h in “in vitro [1]” came to 0.31 ± 0.24 µM; in “in vitro [3]”, 5.65 ± 0.81 µM.

Take `CCCCOP(=O)(OCCCC)c1c(-c2ccccc2)nnn1Cc1ccc(C)cc1` [Compound 18, Dibutyl [1-(4-methylbenzyl)-4-phenyl-1,2,3-triazol-5-yl]phosphonate]: the IC50 at 72 h (in the data set “in vitro [1]” (setting [8]); in the data set “in vitro [3]” (setting [9]); in data set [4]) was greater than 30 µM each time. Also, the results for the IC50 with B. subtilis-GFP (Bacillus subtilis) and in the data set with E. coli-GFP (Escherichia coli) were 18.2 ± 1 µM and greater than 30 µM, respectively.

`CCCCCCCCn1nnc(-c2ccccc2)c1P(=O)(OCCCC)OCCCC` [Compound 25, Dibutyl (1-octyl-4-phenyl-1,2,3-triazol-5-yl)phosphonate]: the half-inhibitory concentration (IC50) at 72 h (in “in vitro [1]” (setting [8]); in “in vitro [3]” (setting [9]); in data set [4]) was greater than 30 µM each time. Also, the IC50 with B. subtilis-GFP (Bacillus subtilis) and in the data set with E. coli-GFP (Escherichia coli) was greater than 30 µM throughout.

Turning to `C[C@H]1c2cccc(O)c2C(=O)C2=C(O)[C@]3(O)C(=O)C(C(N)=O)=C(O)[C@@H](N(C)C)[C@@H]3[C@@H](O)[C@@H]21` [Doxycycline, reference compound], the results for the IC50 in the data set with B. subtilis-GFP (Bacillus subtilis) and with E. coli-GFP (Escherichia coli) were 0.04 ± 0.01 µM and 0.1 ± 0.02 µM, respectively.

In the case of “Dibutyl (1-isooctyl-4-phenyl-1,2,3-triazol-5-yl)phosphonate [Compound 26]”, the IC50 was greater than 30 µM in data set [5]; 26.7 ± 1 µM in data set [6]; 29.6 ± 1 µM in the data set with B. subtilis-GFP; greater than 30 µM in data set [7]; greater than 30 µM with E. coli-GFP.

Turning to `CCOP(=O)(OCC)c1c(-c2ccccc2)nnn1Cc1ccc(C)cc1` [Compound 17, Diethyl [1-(4-methylbenzyl)-4-phenyl-1,2,3-triazol-5-yl]phosphonate], the IC50 at 72 h in the data set “in vitro [1]”, in the data set “in vitro [2]” and in the data set “in vitro [3]” was greater than 30 µM in each case. For the same compound, the 50% inhibitory concentration (IC50) in the data set with B. subtilis-GFP (Bacillus subtilis) and in the data set on E. coli-GFP (Escherichia coli) was greater than 30 µM each time.

Take `CCCCOP(=O)(OCCCC)c1c(-c2ccccc2)nnn1Cc1cccc(F)c1` [Compound 20, Dibutyl [1-(3-fluorobenzyl)-4-phenyl-1,2,3-triazol-5-yl]phosphonate]: the half-maximal inhibitory concentration (IC50) at 72 h was greater than 30 µM in the data set “in vitro [1]” (setting [8]), greater than 30 µM in “in vitro [3]” (setting [9]) and 15.4 ± 1.2 µM in data set [4]. For the same compound, the IC50 in the data set with B. subtilis-GFP (Bacillus subtilis) and in the data set on E. coli-GFP (Escherichia coli) was greater than 30 µM throughout.

Regarding `CCCCOP(=O)(OCCCC)c1c(-c2ccccc2)nnn1Cc1ccccc1F` [Compound 19, Dibutyl [1-(2-fluorobenzyl)-4-phenyl-1,2,3-triazol-5-yl]phosphonate], the IC50 at 72 h in “in vitro [1]” (setting [8]) is greater than 30 µM; in “in vitro [3]” (setting [9]), 27.5 ± 1.1 µM; in data set [4], 11.7 ± 1.2 µM. Moreover, the figures for the IC50 with B. subtilis-GFP (Bacillus subtilis) and with E. coli-GFP (Escherichia coli) were 19.3 ± 1 µM and greater than 30 µM, respectively.

As for `COP(=O)(OC)c1c(-c2ccccc2)nnn1Cc1ccccc1` [Compound 11, Dimethyl (1-benzyl-4-phenyl-1,2,3-triazol-5-yl)phosphonate], the IC50 at 72 h in the data set “in vitro [1]”, in the data set “in vitro [2]” and in the data set “in vitro [3]” was greater than 30 µM in each case. The 50% inhibitory concentration (IC50) with B. subtilis-GFP (Bacillus subtilis) and in the data set with E. coli-GFP (Escherichia coli) was greater than 30 µM in each case.

On to `CCCCOP(=O)(OCCCC)c1c(-c2ccccc2)nnn1Cc1ccc(F)cc1` [Compound 21, Dibutyl [1-(4-fluorobenzyl)-4-phenyl-1,2,3-triazol-5-yl]phosphonate], for which the values for the IC50 at 72 h (in the data set “in vitro [1]” (setting [8]); in “in vitro [3]” (setting [9]); in data set [4]) were greater than 30 µM, greater than 30 µM and 16.6 ± 1.3 µM, respectively. Also, the half-inhibitory concentration (IC50) in the data set with B. subtilis-GFP (Bacillus subtilis) is 23.2 ± 1.1 µM; with E. coli-GFP (Escherichia coli), greater than 30 µM.

With `CC(C)OP(=O)(OC(C)C)c1c(-c2ccccc2)nnn1Cc1ccccc1` [Compound 14, Diisopropyl (1-benzyl-4-phenyl-1,2,3-triazol-5-yl)phosphonate], the IC50 at 72 h (in “in vitro [1]” (setting [8]); in the data set “in vitro [3]” (setting [9]); in data set [4]) was greater than 30 µM in each case. The IC50 in the data set on B. subtilis-GFP (Bacillus subtilis) and with E. coli-GFP (Escherichia coli) was greater than 30 µM each time.

Consider `COP(=O)(OC)c1c(-c2ccccc2)nnn1Cc1ccc(C)cc1` [Compound 16, Dimethyl [1-(4-methylbenzyl)-4-phenyl-1,2,3-triazol-5-yl]phosphonate], for which the half-inhibitory concentration (IC50) at 72 h is greater than 30 µM in the data set “in vitro [1]”, roughly 10 µM in the data set “in vitro [2]” and 19.8 ± 1.2 µM in the data set “in vitro [3]”. Besides, the concentration for half-maximal inhibition (IC50) in data set [6] is 11 ± 1.2 µM; in the data set with B. subtilis-GFP (Bacillus subtilis), greater than 30 µM; in the data set with E. coli-GFP (Escherichia coli) it was greater than 30 µM.

On to `CCCCOP(=O)(OCCCC)c1c(-c2ccccc2)nnn1Cc1ccc(C(F)(F)F)cc1` [Compound 22, Dibutyl [1-(4-trifluoromethyl)-4-phenyl-1,2,3-triazol-5-yl]phosphonate], for which the IC50 at 72 h in “in vitro [1]” (setting [8]) was greater than 30 µM; in “in vitro [3]” (setting [9]) it was 23.1 ± 1.2 µM; in data set [4], roughly 10 µM. Also, the half-maximal inhibitory concentration (IC50) in data set [6] is 9.7 ± 1.1 µM; with B. subtilis-GFP (Bacillus subtilis) it was greater than 30 µM; in the data set with E. coli-GFP (Escherichia coli) it was greater than 30 µM.

`CCCOP(=O)(OCCC)c1c(-c2ccccc2)nnn1Cc1ccccc1` [Compound 13, Dipropyl (1-benzyl-4-phenyl-1,2,3-triazol-5-yl)phosphonate]: the IC50 at 72 h is greater than 30 µM in “in vitro [1]” (setting [8]), greater than 30 µM in “in vitro [3]” (setting [9]) and 12.6 ± 1.7 µM in [4]. In addition, the half-inhibitory concentration (IC50) in the data set on B. subtilis-GFP (Bacillus subtilis) was 29.3 ± 1.2 µM; in the data set on E. coli-GFP (Escherichia coli) it was greater than 30 µM.

For the compound `CCOP(=O)(OCC)c1c(-c2ccccc2)nnn1Cc1ccccc1` [Compound 12, Diethyl (1-benzyl-4-phenyl-1,2,3-triazol-5-yl)phosphonate], the IC50 at 72 h in “in vitro [1]”, in the data set “in vitro [2]” and in the data set “in vitro [3]” was greater than 30 µM throughout. Also, the 50% inhibitory concentration (IC50) in the data set on B. subtilis-GFP (Bacillus subtilis) and in the data set with E. coli-GFP (Escherichia coli) was greater than 30 µM each time.

Regarding `CCCCCCCCn1nnc(-c2ccccc2)c1P(=O)(OC)OC` [Compound 23, Dimethyl (1-octyl-4-phenyl-1,2,3-triazol-5-yl)phosphonate], the half-inhibitory concentration (IC50) at 72 h in the data set “in vitro [1]”, in the data set “in vitro [2]” and in “in vitro [3]” was greater than 30 µM in each case. The 50% inhibitory concentration (IC50) in the data set with B. subtilis-GFP (Bacillus subtilis) and in the data set with E. coli-GFP (Escherichia coli) was greater than 30 µM in each case.

Consider `CNC(C)C1CCC(N)C(OC2C(N)CC(N)C(OC3OCC(C)(O)C(NC)C3O)C2O)O1` (stereo not drawn) [Gentamicin, reference compound], for which the IC50 in the data set with B. subtilis-GFP (Bacillus subtilis) is 0.49 ± 0.14 µM; in the data set on E. coli-GFP (Escherichia coli), 4.23 ± 0.99 µM.

Broadly, the IC50 is the point on the concentration scale where inhibition reaches its midpoint.

The values above are taken from publication PMC7321403, “Synthesis and In Vitro Cytotoxicity and Antibacterial Activity of Novel 1,2,3-Triazol-5-yl-Phosphonates” (Molecules, 2020).
